Measurements: PubChem BioAssay AID1259407 (Chemical Carcinogenesis Research Information System (CCRIS), 2018)
The source made the active and inactive calls. No rule for the calls is given here.

System: CCRIS mutagenicity, Ames/micronucleus/aberration tests
Assay: CCRIS mutagenicity studies
[1] = Test System: AMES SALMONELLA TYPHIMURIUM, Strain/Indicator: TA98, Metabolic Activation: NONE, Method: PREINCUBATION
[2] = Test System: AMES SALMONELLA TYPHIMURIUM, Strain/Indicator: TA100, Metabolic Activation: NONE, Method: PREINCUBATION
[3] = Test System: AMES SALMONELLA TYPHIMURIUM, Strain/Indicator: TA100, Metabolic Activation: NONE, Method: STANDARD PLATE
[4] = Test System: AMES SALMONELLA TYPHIMURIUM, Strain/Indicator: TA102, Metabolic Activation: NONE, Method: STANDARD PLATE
[5] = Test System: AMES SALMONELLA TYPHIMURIUM, Strain/Indicator: TA98, Metabolic Activation: NONE, Method: STANDARD PLATE

In the case of Nc1nc(-c2ccc([N+](=O)[O-])cc2)nc2c1ncn2-c1ccc([N+](=O)[O-])cc1, the mutagenic call (Test System: AMES SALMONELLA TYPHIMURIUM, Strain/Indicator: TA98(1,8-DNP), Metabolic Activation: NONE, Method: PREINCUBATION) is reported as “active; positive”, the mutagenic call (Test System: AMES SALMONELLA TYPHIMURIUM, Strain/Indicator: TA98(1,8-DNP), Metabolic Activation: RAT, LIVER, S-9, PCB, Method: PREINCUBATION) is reported as “active; positive” and the mutagenic call (Test System: AMES SALMONELLA TYPHIMURIUM, Strain/Indicator: TA98(NR), Metabolic Activation: NONE, Method: PREINCUBATION) is reported as “active; positive”. The mutagenic call (Test System: AMES SALMONELLA TYPHIMURIUM, Strain/Indicator: TA98(NR), Metabolic Activation: RAT, LIVER, S-9, PCB, Method: PREINCUBATION) was “active; positive”, the mutagenic call [1] was “active; positive” and the mutagenic call (Test System: AMES SALMONELLA TYPHIMURIUM, Strain/Indicator: TA98, Metabolic Activation: RAT, LIVER, S-9, PCB, Method: PREINCUBATION) was “active; positive”. For the same molecule, the mutagenic call (Test System: AMES SALMONELLA TYPHIMURIUM, Strain/Indicator: TA100(1,8-DNP), Metabolic Activation: NONE, Method: PREINCUBATION) was “active; positive”, the mutagenic call (Test System: AMES SALMONELLA TYPHIMURIUM, Strain/Indicator: TA100(1,8-DNP), Metabolic Activation: RAT, LIVER, S-9, PCB, Method: PREINCUBATION) was “inactive; negative” and the mutagenic call (Test System: AMES SALMONELLA TYPHIMURIUM, Strain/Indicator: TA100(NR), Metabolic Activation: NONE, Method: PREINCUBATION) was “active; positive”. For the same molecule, the mutagenic call (Test System: AMES SALMONELLA TYPHIMURIUM, Strain/Indicator: TA100(NR), Metabolic Activation: RAT, LIVER, S-9, PCB, Method: PREINCUBATION) was “inactive; negative”, the mutagenic call [2] was “active; positive” and the mutagenic call (Test System: AMES SALMONELLA TYPHIMURIUM, Strain/Indicator: TA100, Metabolic Activation: RAT, LIVER, S-9, PCB, Method: PREINCUBATION) was “active; positive”. For the same molecule, the mutagenic call (Test System: AMES SALMONELLA TYPHIMURIUM, Strain/Indicator: YG1020, Metabolic Activation: NONE, Method: PREINCUBATION) was “active; positive”, the mutagenic call (Test System: AMES SALMONELLA TYPHIMURIUM, Strain/Indicator: YG1020, Metabolic Activation: RAT, LIVER, S-9, PCB, Method: PREINCUBATION) was “active; positive” and the mutagenic call (Test System: AMES SALMONELLA TYPHIMURIUM, Strain/Indicator: YG1021, Metabolic Activation: NONE, Method: PREINCUBATION) was “active; positive”. For the same molecule, the mutagenic call (Test System: AMES SALMONELLA TYPHIMURIUM, Strain/Indicator: YG1021, Metabolic Activation: RAT, LIVER, S-9, PCB, Method: PREINCUBATION) was “active; positive”, the mutagenic call (Test System: AMES SALMONELLA TYPHIMURIUM, Strain/Indicator: YG1024, Metabolic Activation: NONE, Method: PREINCUBATION) was “active; positive” and the mutagenic call (Test System: AMES SALMONELLA TYPHIMURIUM, Strain/Indicator: YG1024, Metabolic Activation: RAT, LIVER, S-9, PCB, Method: PREINCUBATION) was “active; positive”. For the same molecule, the mutagenic call (Test System: AMES SALMONELLA TYPHIMURIUM, Strain/Indicator: YG1025, Metabolic Activation: NONE, Method: PREINCUBATION) was “active; positive”, the mutagenic call (Test System: AMES SALMONELLA TYPHIMURIUM, Strain/Indicator: YG1025, Metabolic Activation: RAT, LIVER, S-9, PCB, Method: PREINCUBATION) was “active; positive” and the mutagenic call (Test System: AMES SALMONELLA TYPHIMURIUM, Strain/Indicator: YG1026, Metabolic Activation: NONE, Method: PREINCUBATION) was “active; positive”. For the same molecule, the mutagenic call (Test System: AMES SALMONELLA TYPHIMURIUM, Strain/Indicator: YG1026, Metabolic Activation: RAT, LIVER, S-9, PCB, Method: PREINCUBATION) was “active; positive”, the mutagenic call (Test System: AMES SALMONELLA TYPHIMURIUM, Strain/Indicator: YG1029, Metabolic Activation: NONE, Method: PREINCUBATION) was “active; positive” and the mutagenic call (Test System: AMES SALMONELLA TYPHIMURIUM, Strain/Indicator: YG1029, Metabolic Activation: RAT, LIVER, S-9, PCB, Method: PREINCUBATION) was “active; positive”.

In the case of ClC(Cl)(Cl)C(Cl)(Cl)Cl, the mutagenic call (End Point: IN VITRO CHROMOSOMAL ABERRATIONS, Test System: CHINESE HAMSTER OVARY CELLS, Metabolic Activation: RAT, LIVER, S-9, AROCLOR 1254) is reported as “inactive; negative; precipitation occurred at all doses”, the mutagenic call (Test System: AMES SALMONELLA TYPHIMURIUM, Strain/Indicator: TA98, Metabolic Activation: HAMSTER, LIVER, S-9, AROCLOR 1254, Method: PREINCUBATION) is reported as “inactive; negative” and the mutagenic call [1] is reported as “inactive; negative”. For the same molecule, the mutagenic call (Test System: AMES SALMONELLA TYPHIMURIUM, Strain/Indicator: TA98, Metabolic Activation: RAT, LIVER, S-9, AROCLOR 1254, Method: PREINCUBATION) was “inactive; negative”, the mutagenic call (Test System: AMES SALMONELLA TYPHIMURIUM, Strain/Indicator: TA100, Metabolic Activation: HAMSTER, LIVER, S-9, AROCLOR 1254, Method: PREINCUBATION) was “inactive; negative” and the mutagenic call [2] was “inactive; negative”. For the same molecule, the mutagenic call (Test System: AMES SALMONELLA TYPHIMURIUM, Strain/Indicator: TA100, Metabolic Activation: RAT, LIVER, S-9, AROCLOR 1254, Method: PREINCUBATION) was “inactive; negative”, the mutagenic call (Test System: AMES SALMONELLA TYPHIMURIUM, Strain/Indicator: TA1535, Metabolic Activation: HAMSTER, LIVER, S-9, AROCLOR 1254, Method: PREINCUBATION) was “inactive; negative” and the mutagenic call (Test System: AMES SALMONELLA TYPHIMURIUM, Strain/Indicator: TA1535, Metabolic Activation: NONE, Method: PREINCUBATION) was “inactive; negative”. The mutagenic call (Test System: AMES SALMONELLA TYPHIMURIUM, Strain/Indicator: TA1535, Metabolic Activation: RAT, LIVER, S-9, AROCLOR 1254, Method: PREINCUBATION) was “inactive; negative”, the mutagenic call (Test System: AMES SALMONELLA TYPHIMURIUM, Strain/Indicator: TA1537, Metabolic Activation: HAMSTER, LIVER, S-9, AROCLOR 1254, Method: PREINCUBATION) was “inactive; negative” and the mutagenic call (Test System: AMES SALMONELLA TYPHIMURIUM, Strain/Indicator: TA1537, Metabolic Activation: NONE, Method: PREINCUBATION) was “inactive; negative”. For the same molecule, the mutagenic call (Test System: AMES SALMONELLA TYPHIMURIUM, Strain/Indicator: TA1537, Metabolic Activation: RAT, LIVER, S-9, AROCLOR 1254, Method: PREINCUBATION) was “inactive; negative”.

With CC(C)(S)[C@@H](N)C(=O)O the mutagenic call (Test System: AMES SALMONELLA TYPHIMURIUM, Strain/Indicator: TA92, Metabolic Activation: HOMOGENIZED V-79, Method: STANDARD PLATE) was “active; positive”, the mutagenic call (Test System: AMES SALMONELLA TYPHIMURIUM, Strain/Indicator: TA92, Metabolic Activation: NONE, Method: STANDARD PLATE) was “active; positive” and the mutagenic call (Test System: AMES SALMONELLA TYPHIMURIUM, Strain/Indicator: TA92, Metabolic Activation: RAT, KIDNEY, S-9, Method: STANDARD PLATE) was “active; positive”. The mutagenic call (Test System: AMES SALMONELLA TYPHIMURIUM, Strain/Indicator: TA92, Metabolic Activation: RAT, LIVER, S-9, Method: STANDARD PLATE) was “active; positive”, the mutagenic call [3] was “active; positive” and the mutagenic call (Test System: AMES SALMONELLA TYPHIMURIUM, Strain/Indicator: TA100, Metabolic Activation: RAT, KIDNEY, S-9, Method: STANDARD PLATE) was “active; positive”. For the same molecule, the mutagenic call (Test System: AMES SALMONELLA TYPHIMURIUM, Strain/Indicator: TA100, Metabolic Activation: RAT, LIVER, S-9, Method: STANDARD PLATE) was “active; positive”, the mutagenic call [4] was “active; positive” and the mutagenic call (Test System: CHINESE HAMSTER V-79, Strain/Indicator: V-79/6-THIOGUANINE, Metabolic Activation: NONE, Method: STANDARD PLATE) was “inactive; negative”.

With CN1C(=O)[C@]23CC4=CC=C[C@H](O)[C@H]4N2C(=O)[C@@]1(CO)SS3 the mutagenic call [5] was “inactive; negative”, the mutagenic call (Test System: AMES SALMONELLA TYPHIMURIUM, Strain/Indicator: TA98, Metabolic Activation: RAT LIVER S-9 MIX, Method: STANDARD PLATE) was “inactive; negative” and the mutagenic call (Test System: AMES SALMONELLA TYPHIMURIUM, Strain/Indicator: TA98, Metabolic Activation: S-9, Method: STANDARD PLATE) was “inactive; negative”. For the same molecule, the mutagenic call [3] was “inactive; negative”, the mutagenic call (Test System: AMES SALMONELLA TYPHIMURIUM, Strain/Indicator: TA100, Metabolic Activation: RAT LIVER S-9 MIX, Method: STANDARD PLATE) was “inactive; negative” and the mutagenic call (Test System: AMES SALMONELLA TYPHIMURIUM, Strain/Indicator: TA100, Metabolic Activation: S-9, Method: STANDARD PLATE) was “inactive; negative”. The mutagenic call [4] was “inactive; negative”, the mutagenic call (Test System: AMES SALMONELLA TYPHIMURIUM, Strain/Indicator: TA102, Metabolic Activation: RAT LIVER S-9 MIX, Method: STANDARD PLATE) was “inactive; negative” and the mutagenic call (Test System: AMES SALMONELLA TYPHIMURIUM, Strain/Indicator: TA1537, Metabolic Activation: NONE, Method: STANDARD PLATE) was “inactive; negative”. The mutagenic call (Test System: AMES SALMONELLA TYPHIMURIUM, Strain/Indicator: TA1537, Metabolic Activation: S-9, Method: STANDARD PLATE) was “inactive; negative”.

For c1cc2ccc3cc4occc4c4ccc(c1)c2c34, the mutagenic call [5] was “inactive; negative” and the mutagenic call (Test System: AMES SALMONELLA TYPHIMURIUM, Strain/Indicator: TA98, Metabolic Activation: RAT, LIVER, S-9, AROCLOR 1254, Method: STANDARD PLATE) was “active; positive”.
